Assay results from patent publication US20250171511A1, “ANTIVIRAL PEPTIDES AND METHODS OF USE THEREOF” (Versitech Limited, priority 2021, published 2025).
Where a SMILES comes first, the peptide text is derived from it.

Columns and labels:
[1] = system: VeroE6 cells; assay: Endosomal acidification assay; type: cell-based
Description: Endosomal acidification was detected with a pH-sensitive dye (pHrodo green dextran, Invitrogen, Cat^# P35365) according to the manufacturer's instructions as previously described but with slight modification (H. Zhao, et al., Nat Commun, 9 (2018) 2358). First, VeroE6 cells were treated with DMEM, 4H30 (25.0 μg ml^−1), or bafilomycin A1 (50.0 nM) at 4° C. for 15 min. Second, VeroE6 cells were added with 100 μg ml^−1 of pH-sensitive dye and DAPI and then incubated at 4° C. for 15 min. Before taking images, cells were further incubated at 37° C. for 15 min and then cells were washed twice with PBS. Finally, PBS was added to cells and images were taken immediately with confocal microscope (Carl Zeiss LSM 800, Germany).

[2] = system: spike-ACE2 mediated fusion; type: cell-based; settings: endocytosis pathway
[3] = Solubility of peptide in water; type: physicochemical
Description: H23, H26, H30, 2H30, and 4H30 shown in Table 1 were synthesized by ChinaPeptide (Shanghai, China). All peptides were dissolved in water. The solubility of peptide in water is greater than 5 mg ml^−1. The purity of all peptides was >80%. The purity and mass of each peptide were verified by HPLC and mass spectrometry.

[4] = biological target: SARS-CoV-2 spike (SARS-CoV-2), P0DTC2; assay: cell-based or functional assay

Molecule	solubility [3] [µg/mL]	also measured
CO/C1=C\C(C)=C\[C@@H](C)[C@@H](O)[C@@H](C)C/C(C)=C/C=C/[C@H](OC)[C@@H]([C@@H](C)[C@@H](O)[C@H](C)[C@@]2(O)C[C@@H](O)[C@H](C)[C@@H](C(C)C)O2)OC1=O [bafilomycin Al, bafilomycin A1, reference compound]	–	endosomal acidification [1]: inhibiting endosomal acidification; spike-ACE2 mediated cell fusion [2]: inhibiting endosomal acidification and cell fusion
CC[C@H](C)[C@H](NC(=O)[C@H](CCC(N)=O)NC(=O)[C@H](CCCCN)NC(=O)[C@H](Cc1ccc(O)cc1)NC(=O)[C@H](CCCNC(=N)N)NC(=O)[C@H](CCCNC(=N)N)NC(=O)[C@@H]1CCCN1C(=O)[C@H](CS)NC(=O)[C@H](Cc1ccccc1)NC(=O)[C@@H](NC(=O)[C@@H]1CCCN1C(=O)[C@H](Cc1c[nH]cn1)NC(=O)[C@@H](N)CS)C(C)C)C(=O)NCC(=O)N[C@H](C(=O)N[C@@H](CS)C(=O)NCC(=O)N[C@@H](CC(C)C)C(=O)N1CCC[C@H]1C(=O)NCC(=O)N[C@H](C(=O)N[C@@H](CCCCN)C(=O)N[C@@H](CS)C(=O)O)[C@@H](C)O)[C@@H](C)O [Peptide H23] (H-CHPVFCPRRYKQIGTCGLPGTKC-OH; N-terminus and C-terminus assumed)	> 5000	–
CC[C@H](C)[C@H](NC(=O)[C@H](C)NC(=O)CN)C(=O)N[C@@H](CS)C(=O)N[C@@H](Cc1c[nH]cn1)C(=O)N1CCC[C@H]1C(=O)N[C@H](C(=O)N[C@@H](Cc1ccccc1)C(=O)N[C@@H](CS)C(=O)N1CCC[C@H]1C(=O)N[C@@H](CCCNC(=N)N)C(=O)N[C@@H](CCCNC(=N)N)C(=O)N[C@@H](Cc1ccc(O)cc1)C(=O)N[C@@H](CCCCN)C(=O)N[C@@H](CCC(N)=O)C(=O)N[C@H](C(=O)NCC(=O)N[C@H](C(=O)N[C@@H](CS)C(=O)NCC(=O)N[C@@H](CC(C)C)C(=O)N1CCC[C@H]1C(=O)NCC(=O)N[C@H](C(=O)N[C@@H](CCCCN)C(=O)N[C@@H](CS)C(=O)N[C@@H](CS)C(=O)N[C@@H](CCCCN)C(=O)N[C@@H](CCCCN)C(=O)N1CCC[C@H]1C(=O)O)[C@@H](C)O)[C@@H](C)O)[C@@H](C)CC)C(C)C [Peptide H30] (H-GAICHPVFCPRRYKQIGTCGLPGTKCCKKP-OH; N-terminus and C-terminus assumed)	> 5000	–
CC[C@H](C)[C@H](NC(=O)[C@H](CCC(N)=O)NC(=O)[C@H](CCCCN)NC(=O)[C@H](Cc1ccc(O)cc1)NC(=O)[C@H](CCCNC(=N)N)NC(=O)[C@H](CCCNC(=N)N)NC(=O)[C@@H]1CCCN1C(=O)[C@H](CS)NC(=O)[C@H](Cc1ccccc1)NC(=O)[C@@H](NC(=O)[C@@H]1CCCN1C(=O)[C@H](Cc1c[nH]cn1)NC(=O)[C@@H](N)CS)C(C)C)C(=O)NCC(=O)N[C@H](C(=O)N[C@@H](CS)C(=O)NCC(=O)N[C@@H](CC(C)C)C(=O)N1CCC[C@H]1C(=O)NCC(=O)N[C@H](C(=O)N[C@@H](CCCCN)C(=O)N[C@@H](CS)C(=O)N[C@@H](CS)C(=O)N[C@@H](CCCCN)C(=O)N[C@@H](CCCCN)C(=O)O)[C@@H](C)O)[C@@H](C)O [Peptide H26] (H-CHPVFCPRRYKQIGTCGLPGTKCCKK-OH; N-terminus and C-terminus assumed)	> 5000	–
GAICHPVFCPRRYKQIGTCGLPGTKCCKKP (modifications not checked) [four branched H30 (4H30)]	–	IC50 of inhibition of SARS-CoV-2 infection, plaque reduction assay in PBS [4]: 0.59 µg/mL
